The test system of one assay is KARPAS-422 cells. As to the kind of experiment: Cell proliferation analysis, KARPAS-422, 13 days, CellTiter-Glo. In kind it is cell-based. As to conditions: Homo sapiens, 312 h. Summed up: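 KARPAS-422 cells were treated with PRC2 inhibitors over 9 three-fold dilutions from 10 μM top (0.5% DMSO, duplicates) in RPMI-1640 with 15% FBS at 37 °C. Every 3–4 days cells were counted and reseeded at 1×10^4/well with fresh compound. Viability was read by CellTiter-Glo luminescence on day 13.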
(In general: ATP-based viability assays read luminescence as a measure of living cells.)

The subject of assay [1] is trimethylation level of histone H3K27 in G401 cells. As to the kind of experiment: ELISA (H3K27 trimethylation) analysis in G401 cells. The class given is cell-based. Conditions: Homo sapiens, G-401, 72 hours, H3K27me3 standardized to H3. Summed up:
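Cells exposed 72 h to 10-point 3-fold dilutions, top 10 μM, 0.5% final DMSO. Acid-extracted histones assayed by ELISA (ECL) for H3K27me3, normalized to total H3 and to DMSO control; IC50 from dose-response fit.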

In assay [2] the target is T1, EED protein (His6-tagged full-length) binding to H3K27me3 polypeptide (Homo sapiens, UniProt O75530).
T1 construct: His6-tagged full-length EED protein (441 amino acids)
T1 sequence (O75530 whole entry): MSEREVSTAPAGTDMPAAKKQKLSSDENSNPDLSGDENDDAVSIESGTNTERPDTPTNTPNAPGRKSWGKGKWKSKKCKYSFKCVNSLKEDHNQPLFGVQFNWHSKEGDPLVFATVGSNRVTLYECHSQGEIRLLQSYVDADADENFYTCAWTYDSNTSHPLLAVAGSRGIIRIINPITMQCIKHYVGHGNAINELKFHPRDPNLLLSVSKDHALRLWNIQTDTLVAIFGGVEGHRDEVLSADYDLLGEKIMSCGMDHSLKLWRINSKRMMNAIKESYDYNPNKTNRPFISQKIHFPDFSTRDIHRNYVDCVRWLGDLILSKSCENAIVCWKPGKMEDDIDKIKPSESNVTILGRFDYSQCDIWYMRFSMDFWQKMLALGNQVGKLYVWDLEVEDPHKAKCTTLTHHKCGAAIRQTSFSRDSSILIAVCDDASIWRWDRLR
As to the kind of experiment: AlphaScreen evaluation of blocking the binding of EED to H3K27Me3. Conditions: EED 60 nM, biotinylated H3K27me3 75 nM, 30 minutes incubation. An outline of the steps:
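His6-tagged full-length EED (60 nM working stock) and biotin-H3K27me3 peptide aa 19–33 (75 nM working stock) incubated 30 min RT with 9-point 3-fold compound series in 25 mM HEPES pH 8.0, 50 mM NaCl, 0.015% Tween 20, 0.5% BSA. Ni-chelate acceptor and streptavidin donor beads (5 μg/mL each), 1 h dark; IC50 from dose-response fit. Biotin-(His)6 counterscreen checked signal interference.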
(Alpha assays give light when donor and acceptor beads are brought close together.)

In general, IC50 refers to the concentration that inhibits the measured activity by half. A high value points to lower potency. Take `Fc1ccc2c(c1CNc1ncc(-c3ccc4ccnn4c3)c3nncn13)CCO2` [N-((5-fluoro-2,3-dihydrobenzofuran-4-yl)methyl)-8-(pyrazolo[1,5-a]pyridin-6-yl)-[1,2,4]triazolo[4,3-c]pyrimidin-5-amine]: the IC50 with KARPAS-422 cells was 0.0154 µM; in assay [1] it was 0.0061 µM; in assay [2], 0.0043 µM.

In the case of `Fc1ccc2c(c1CNc1ncc(-c3ccn4ccnc4c3)c3nncn13)CCO2` [N-((5-fluoro-2,3-dihydrobenzofuran-4-yl)methyl)-8-(imidazo[1,2-a]pyridin-7-yl)-[1,2,4]triazolo[4,3-c]pyrimidin-5-amine], the IC50 in the assay on KARPAS-422 cells stood at 0.0165 µM; in assay [1], 0.0056 µM; in assay [2], 0.015 µM.

`Cc1cnc2c(-c3cnc(NCc4c(F)ccc5c4CCO5)n4cnnc34)cc(F)cn12` [N-((5-fluoro-2,3-dihydrobenzofuran-4-yl)methyl)-8-(6-fluoro-3-methylimidazo[1,2-a]pyridin-8-yl)-[1,2,4]triazolo[4,3-c]pyrimidin-5-amine]: the IC50 with KARPAS-422 cells is 0.004 µM; in assay [1], 0.0057 µM; in assay [2], 0.0074 µM.

As to `Cc1nc2c(-c3cnc(NCc4c(F)ccc5c4CCO5)n4cnnc34)cccc2o1` [N-((5-fluoro-2,3-dihydrobenzofuran-4-yl)methyl)-8-(2-methylbenzo[d]oxazol-4-yl)-[1,2,4]triazolo[4,3-c]pyrimidin-5-amine], the IC50 stood at 0.0042 µM in the assay on KARPAS-422 cells, 0.0078 µM in assay [1] and 0.0092 µM in assay [2].

`Fc1cc(-c2cnc(NCc3c(F)ccc4c3CCO4)n3cnnc23)c2nccn2c1` [N-((5-fluoro-2,3-dihydrobenzofuran-4-yl)methyl)-8-(6-fluoroimidazo[1,2-a]pyridin-8-yl)-[1,2,4]triazolo[4,3-c]pyrimidin-5-amine]: the IC50 in the assay with KARPAS-422 cells turned out to be 0.002 µM; in assay [1], 0.0029 µM; in assay [2] it was 0.0049 µM.

`O=S1(=O)C=Cc2c(-c3cnc(NCc4c(F)ccc5c4CCO5)n4cnnc34)cccc21` [4-(5-(((5-fluoro-2,3-dihydrobenzofuran-4-yl)methyl)amino)-[1,2,4]triazolo[4,3-c]pyrimidin-8-yl)benzo[b]thiophene 1,1-dioxide]: the IC50 is 0.013 µM in the assay on KARPAS-422 cells, 0.021 µM in assay [1] and 0.01 µM in assay [2].

With `O=S1(=O)C=C(F)c2cc(-c3cnc(NCc4c(F)ccc5c4[C@H]4C[C@H]4O5)n4cnnc34)ccc21` [3-fluoro-5-(5-((((1aR,6bR)-5-fluoro-1a,6b-dihydro-1H-cyclopropa[b]benzofuran-6-yl)methyl)amino)-[1,2,4]triazolo[4,3-c]pyrimidin-8-yl)benzo[b]thiophene 1,1-dioxide], the IC50 with KARPAS-422 cells was found to be 0.097 µM; in assay [1] it was 0.078 µM; in assay [2] it was 0.123 µM.

Consider `CC(=O)c1c(C)nc2c(-c3cnc(NCc4c(F)ccc5c4CCO5)n4cnnc34)cc(F)cn12` [1-(6-fluoro-8-(5-(((5-fluoro-2,3-dihydrobenzofuran-4-yl)methyl)amino)-[1,2,4]triazolo[4,3-c]pyrimidin-8-yl)-2-methylimidazo[1,2-a]pyridin-3-yl)ethan-1-one], for which the figures for the IC50 (in the assay with KARPAS-422 cells; in assay [1]; in assay [2]) were 0.0011 µM, 0.0015 µM and 0.016 µM, respectively.

With `Fc1ccc2c(c1CNc1ncc(-c3cccn4ncnc34)c3nncn13)[C@H]1C[C@H]1O2` [8-([1,2,4]triazolo[1,5-a]pyridin-8-yl)-N-(((1aR,6bR)-5-fluoro-1a,6b-dihydro-1H-cyclopropa[b]benzofuran-6-yl)methyl)-[1,2,4]triazolo[4,3-c]pyrimidin-5-amine], the values for the IC50 (in the assay with KARPAS-422 cells; in assay [1]; in assay [2]) were 0.0019 µM, 0.0007 µM and 0.004 µM, respectively.

In the case of `Cn1cnc2c(-c3cnc(NCc4c(F)ccc5c4CCO5)n4cnnc34)cccc21` [N-((5-fluoro-2,3-dihydrobenzofuran-4-yl)methyl)-8-(1-methyl-1H-benzo[d]imidazol-4-yl)-[1,2,4]triazolo[4,3-c]pyrimidin-5-amine], the IC50 was found to be 0.0016 µM in the assay with KARPAS-422 cells, 0.0013 µM in assay [1] and 0.0086 µM in assay [2].

On to `CC1=C(F)c2cc(-c3cnc(NCc4c(F)ccc5c4CCO5)n4cnnc34)ccc2S1(=O)=O` [3-fluoro-5-(5-(((5-fluoro-2,3-dihydrobenzofuran-4-yl)methyl)amino)-[1,2,4]triazolo[4,3-c]pyrimidin-8-yl)-2-methylbenzo[b]thiophene 1,1-dioxide], for which the figures for the IC50 (with KARPAS-422 cells; in assay [1]; in assay [2]) were 0.0049 µM, 0.0073 µM and 0.0026 µM, respectively.

On to `O=S1(=O)C=c2ccc(-c3cnc(NCc4c(F)ccc5c4CCCO5)n4cnnc34)cc2=C1` [5-(5-(((6-fluorochroman-5-yl)methyl)amino)-[1,2,4]triazolo[4,3-c]pyrimidin-8-yl)benzo[c]thiophene 2,2-dioxide], for which the IC50 amounted to 0.0016 µM with KARPAS-422 cells, 0.002 µM in assay [1] and 0.0064 µM in assay [2].

For the compound `Fc1ccc2c(c1CNc1ncc(-c3cnc4ccnn4c3)c3nncn13)CCO2` [N-((5-fluoro-2,3-dihydrobenzofuran-4-yl)methyl)-8-(pyrazolo[1,5-a]pyrimidin-6-yl)-[1,2,4]triazolo[4,3-c]pyrimidin-5-amine], the values for the IC50 (in the assay with KARPAS-422 cells; in assay [1]; in assay [2]) were 0.0183 µM, 0.018 µM and 0.0057 µM, respectively.

On to `Fc1ccc2c(c1CNc1ncc(-c3cc(Cl)cn4ccnc34)c3nncn13)CCO2` [8-(6-chloroimidazo[1,2-a]pyridin-8-yl)-N-((5-fluoro-2,3-dihydrobenzofuran-4-yl)methyl)-[1,2,4]triazolo[4,3-c]pyrimidin-5-amine], for which the values for the IC50 (with KARPAS-422 cells; in assay [1]; in assay [2]) were 0.042 µM, 0.0085 µM and 0.0044 µM, respectively.

As to `Fc1cc(-c2cnc(NCc3c(F)ccc4c3CCO4)n3cnnc23)c2nc(C(F)(F)F)cn2c1` [N-((5-fluoro-2,3-dihydrobenzofuran-4-yl)methyl)-8-(6-fluoro-2-(trifluoromethyl)imidazo[1,2-a]pyridin-8-yl)-[11,2,4]triazolo[4,3-c]pyrimidin-5-amine], the values for the IC50 (in the assay on KARPAS-422 cells; in assay [1]; in assay [2]) were 0.0095 µM, 0.0171 µM and 0.0023 µM, respectively.

In the case of `CC1=Cc2ccc(-c3cnc(NCc4c(F)ccc5c4CCO5)n4cnnc34)cc2S1(=O)=O` [6-(5-(((5-fluoro-2,3-dihydrobenzofuran-4-yl)methyl)amino)-[1,2,4]triazolo[4,3-c]pyrimidin-8-yl)-2-methylbenzo[b]thiophene 1,1-dioxide], the IC50 is 0.0088 µM with KARPAS-422 cells, 0.0079 µM in assay [1] and 0.0027 µM in assay [2].

`Fc1ccc2c(c1CNc1ncc(-c3cccn4ccnc34)c3nncn13)[C@H]1C[C@H]1O2` [N-(((1aR,6bR)-5-fluoro-1a,6b-dihydro-1H-cyclopropa[b]benzofuran-6-yl)methyl)-8-(imidazo[1,2-a]pyridin-8-yl)-[1,2,4]triazolo[4,3-c]pyrimidin-5-amine]: the IC50 is 0.0006 µM in the assay with KARPAS-422 cells, 0.001 µM in assay [1] and 0.0035 µM in assay [2].

Turning to `Fc1ccc2c(c1CNc1ncc(-c3ccc4nccn4c3)c3nncn13)CCO2` [N-((5-fluoro-2,3-dihydrobenzofuran-4-yl)methyl)-8-(imidazo[1,2-a]pyridin-6-yl)-[1,2,4]triazolo[4,3-c]pyrimidin-5-amine], the IC50 turned out to be 0.0941 µM with KARPAS-422 cells, 0.058 µM in assay [1] and 0.0424 µM in assay [2].

For the compound `Cc1ccc(-c2cnc(NCc3c(F)ccc4c3CCO4)n3cnnc23)c2ncc(C(C)C)n12` [N-((5-fluoro-2,3-dihydrobenzofuran-4-yl)methyl)-8-(3-isopropyl-5-methylimidazo[1,2-a]pyridin-8-yl)-[1,2,4]triazolo[4,3-c]pyrimidin-5-amine], the IC50 with KARPAS-422 cells was 0.001 µM; in assay [1], 0.0007 µM; in assay [2], 0.0028 µM.

In the case of `Cc1ccc(-c2cnc(NCc3c(F)ccc4c3CCO4)n3cnnc23)c2ncc(CC(=O)O)n12` [2-(8-(5-(((5-fluoro-2,3-dihydrobenzofuran-4-yl)methyl)amino)-[1,2,4]triazolo[4,3-c]pyrimidin-8-yl)-5-methylimidazo[1,2-a]pyridin-3-yl)acetic acid], the IC50 stood at 0.0047 µM with KARPAS-422 cells, 0.004 µM in assay [1] and 0.0054 µM in assay [2].

As for `O=S1(=O)C=Cc2cc(-c3cnc(NCc4c(F)ccc5c4[C@H]4C[C@H]4O5)n4cnnc34)ccc21` [5-(5-((((1aR,6bR)-5-fluoro-1a,6b-dihydro-1H-cyclopropa[b]benzofuran-6-yl)methyl)amino)-[1,2,4]triazolo[4,3-c]pyrimidin-8-yl)benzo[b]thiophene 1,1-dioxide], the IC50 amounted to 0.0007 µM with KARPAS-422 cells, 0.0008 µM in assay [1] and 0.0038 µM in assay [2].

Regarding `Cc1cn2cc(F)cc(-c3cnc(NCc4c(F)ccc5c4CCO5)n4cnnc34)c2n1` [N-((5-fluoro-2,3-dihydrobenzofuran-4-yl)methyl)-8-(6-fluoro-2-methylimidazo[1,2-a]pyridin-8-yl)-[1,2,4]triazolo[4,3-c]pyrimidin-5-amine], the IC50 with KARPAS-422 cells amounted to 0.0013 µM; in assay [1], 0.0035 µM; in assay [2], 0.003 µM.

The values above are taken from patent US12583870B2, “Azaheteroaryl compound and application thereof” (SHANGHAI BLUERAY BIOPHARMA CO., LTD., priority 2019, dated 2026).
